Source: US10188754B2, “Compositions and methods for chemical exchange saturation transfer (CEST) based magnetic resonance imaging (MRI)” (THE JOHNS HOPKINS UNIVERSITY, priority 2013, dated 2019)

assay: Screening of beta-hydroxy carboxylate analogs for CEST contrast (Table 4A); settings: Concentration 5 mM
Procedure: All compounds were dissolved in 0.01M phosphate-buffered saline (PBS) with concentrations of 100 mM. They were then titrated by HCl/NaOH to the pH of 6 to 8. The solutions were placed into 1-mm capillary tubes and then assembled in a holder for high throughput CEST MR imaging. […] CEST contrast was quantified by: MTRasym=(S−Δω−S+Δω)/S0 after a voxel-by-voxel B0 correction, with characterized mean Z-spectra and MTRasym spectra for sample ROIs plotted in FIG. 22.

Signal (ppm)	Compound
None	Cc1cccc(Nc2ccccc2C(=O)O)c1C [Entry 52]
4.8 ppm	Cc1ccc(Cl)c(Nc2ccccc2C(=O)O)c1Cl [Entry 51]
None	Cc1cccc(Nc2ccccc2C(=O)O)c1Cl [Entry 53]

same assay, conditions: Concentration 10 mM

Compound	Signal (ppm)	kex [s⁻¹]
O=C(O)c1ccc(O)c(/C=N/CC/N=C/c2cc(C(=O)O)ccc2O)c1 [Entry 11]	7.8 ppm	15400
COC(=O)c1cc([N+](=O)[O-])ccc1O [Entry 5]	None	–
O=C(O)c1ccc(C(=O)O)c(O)c1 [Entry 23]	9.3 ppm	420
O=C(O)c1cc(Cl)cc(Cl)c1O [Entry 31]	10.3 ppm	1070
[O-][n+]1cccc2cccc(O)c21 [Entry 8]	9.5 ppm	32
COC(=O)c1ccc(O)c([N+](=O)[O-])c1 [Entry 7]	None	–
O=Cc1cc(C(=O)O)ccc1O [Entry 9]	None	–
Cc1cccc(C(=O)O)c1O [Entry 28]	9.5 ppm	250
Oc1ccccc1-c1nnn[nH]1 [Entry 13]	None	–
O=C(O)CNC(=O)c1ccccc1O [Entry 3]	None	–
O=C(O)c1ccc([N+](=O)[O-])cc1O [Entry 24]	9.5 ppm	1500
Nc1ccc(C(=O)O)c(O)c1 [Entry 22]	9.5 ppm	384
O=C(O)c1ccc(O)cc1O [Entry 21]	9.5 ppm	462
O=C(O)c1cc([N+](=O)[O-])cc([N+](=O)[O-])c1O [Entry 20]	None	–
COC(=O)c1ccccc1O [Entry 4]	None	–
O=C(O)c1c(O)cccc1O [Entry 27]	9.3 ppm	30
O=C(O)c1cccc(F)c1O [Entry 30]	9.5 ppm	750
O=[N+]([O-])c1ccccc1O [Entry 6]	None	–
NC(Cc1cc(I)c(O)c(I)c1)C(=O)O (centres unmarked) [Entry 14]	None	–
COc1cccc(O)c1C(=O)O [Entry 26]	9.0 ppm	4900
O=C(O)c1cc(Cl)ccc1O [Entry 17]	9.0 ppm	290
Nc1ccc(O)c(C(=O)O)c1 [Entry 16]	8.5 ppm	380
O=C(O)c1cc([N+](=O)[O-])ccc1O [Entry 19]	10.3 ppm	5660
O/N=C/c1ccccc1O [Entry 10]	None	–
O=C(O)c1ccccc1O [Entry 1]	9.3 ppm	400
O=C(O)c1c(O)ccc2ccccc12 [Entry 25]	9.5 ppm	4400
O=C(O)c1ccccc1Nc1cccc(C(F)(F)F)c1 [Entry 50]	4.8 ppm	1000
O=C(O)c1cc(Br)cc(Br)c1O [Entry 32]	10.5 ppm	580
O=C(O)c1cc(O)ccc1O [Entry 15]	8.5 ppm	400

Results, then the compound that gave them:

Signal (ppm)	kex [s⁻¹]	Compound
6.3 ppm	550	CS(=O)(=O)Nc1ccc(N)cc1C(=O)O [Entry 61]
12.0 ppm	1430	O=C(O)c1cccc([N+](=O)[O-])c1O [Entry 41]
7.8 ppm	440	Cc1ccc(S(=O)(=O)Nc2ccccc2C(=O)O)cc1 [Entry 62]
8.3 ppm	990	O=C(O)c1cc(O)c(C(=O)O)cc1O [Entry 42]
10.5 ppm	510	O=Cc1cccc(C(=O)O)c1O [Entry 39]
None	–	O=C(O)c1cccnc1Nc1cccc(C(F)(F)F)c1 [Entry 54]
4.8 ppm	674	O=C(O)c1ccccc1Nc1ccccc1 [Entry 49]
9.8 ppm	460	O=C(O)c1cc(C(=O)O)c(O)cc1O [Entry 43]
9.0 ppm	410	Nc1cccc(C(=O)O)c1O [Entry 38]
9.5 ppm	130	O=C(O)c1cc2ccccc2c(Cc2c(O)c(C(=O)O)cc3ccccc23)c1O [Entry 44]
9.3 ppm	190	O=C(O)c1ccccc1NC(=O)C(F)(F)F [Entry 57]
9.5 ppm	6680	O=C(O)c1cccc(C(=O)O)c1O [Entry 40]
9.0 ppm	2000	O=C(O)c1cccc(O)c1O [Entry 36]
7.3 ppm	470	CS(=O)(=O)Nc1ccccc1C(=O)O [Entry 58]
10.5 ppm	220	O=C(O)c1ccc2ccccc2c1O [Entry 34]
9.3 ppm	480	COc1cccc(C(=O)O)c1O [Entry 37]
10.3 ppm	1530	O=C(O)c1ccc2cccnc2c1O [Entry 35]
10.8 ppm	310	O=C(O)c1cc(I)cc(I)c1O [Entry 33]

same assay, conditions: Concentration 20 mM

Signal (ppm)	kex [s⁻¹]	Compound
9.3	22	CC(C)(C)c1cc(C(=O)O)c(O)c(C(C)(C)C)c1 [Entry 29]

same assay, conditions: Concentration 25 mM

Compound	Signal (ppm)	kex [s⁻¹]
CNc1ccccc1C(=O)O [Entry 48]	None	–
Nc1ccccc1C(=O)O [Entry 47]	None	–

Further lines, results first:

Signal (ppm)	kex [s⁻¹]	Compound
9.6 ppm	1000	O=C(O)c1cc(/N=N\c2ccc(S(=O)(=O)Nc3ccccn3)cc2)ccc1O [Entry 46]
None	–	CC(C)(C)OC(=O)Nc1ccccc1C(=O)O [Entry 56]
9.3 ppm	650	O=C(O)c1ccc(-c2ccc(F)cc2F)cc1O [Entry 45]
7.3 ppm	1000	CS(=O)(=O)Nc1ccc(Cl)cc1C(=O)O [Entry 59]
None	–	CC(=O)Nc1ccccc1C(=O)O [Entry 55]
None	–	O=C(O)c1ccccc1N/N=C\c1ccccc1 [Entry 64]
None	–	O=C(O)c1ccccc1NS(=O)(=O)C(F)(F)F [Entry 63]
7.0 ppm	500	Cc1ccc(NS(C)(=O)=O)c(C(=O)O)c1 [Entry 60]

assay: not given; format: physicochemical; settings: Table 2; 10 mM, pH 7.3-7.4, tsat = 3 sec, ω1 = 3.6 μT, 37° C.

Compound	Signal (ppm)
O=C(O)c1cc([N+](=O)[O-])ccc1O [Compound 14, 5-nitrosalicylic acid]	10.3 ppm
O=C(O)c1cc([N+](=O)[O-])cc([N+](=O)[O-])c1O [Compound 15, 3,5-Dinitrosalicylic acid]	None

same assay, conditions: Table 4; 10 mM, pH 7.3-7.4, tsat = 3 sec, ω1 = 3.6 μT, 37° C.

Signal (ppm)	Compound
9.5	O=C(O)c1cccc(C(=O)O)c1O [Compound 35, 2-hydroxyisophthalic acid]
12.0	O=C(O)c1cccc([N+](=O)[O-])c1O [Compound 36, 3-nitrosalicylic acid]
10.3	O=C(O)c1ccc2cccnc2c1O [Compound 30, 8-hydroxy-7-quinolinecarboxylic acid]
